Twelve compounds from patent publication US11553718B2, “Mic reduction with lithium ions” (priority 2014, dated 2023) can be followed below.

The test system of assay [1] is bacterial strain rOmyAK. Description: microbe, parasite or virus in culture. It is filed as cell-based, Pseudomonas mendocina. The note with it: for MIC: Thioalkalivibrio paradoxus, read-out: MIC active/aequeous, rOmyAK; for MIC ratio (MICwithout Li/MICLi): rOmyAK. On the procedure: (§1) When not otherwise indicated, the quoted bacterial counts (values are in cfu/plate) in the Tables here below are determined after 2 days following plate-out and incubation at 30° C. The counting method was as follows. The aqueous preparations were stirred well with a cotton swap (e.g. Applimed SA, No. 1102245); the excess aqueous preparation was removed by dipping it gently to the side of the aqueous preparation container, leaving approximately 200 mg of aqueous preparation on the swap. […] TSA plates were then incubated for 48 h at 30° C. Colony forming units (cfu) were then counted and reported as cfu/plate. Counts from 100 to 999 cfu per plate are reported as ≥100 cfu/plate. Counts of 1000 cfu and above per plate are reported as ≥1000 cfu/plate. Yeast and moulds were counted as described for bacteria with the following exceptions, a) Sabouraud Dextrose Agar (SDA) containing Chloramphenicol (e.g. heipha Dr. Miller GmbH, No. 1460030020) were used instead of TSA, b) SDA plates were incubated at 25° for 5 days and c) cfu were counted and reported after 48 h and 5 days of incubation. Yeast and moulds counts from 20 to 99 cfu per plate are reported as […]. Yeast and moulds counts of 100 cfu and above per plate are reported as >100 cfu/plate.
(§2) For determining the MIC, the tested microorganism, i.e. the strain of bacteria and/or strain of yeast and/or strain of mould, were freshly grown until the end of the logarithmic growth phase according to the requirements of the individual species to a density of approximately 10^7-10^9 cells/ml.
(§3) For example, fresh bacteria cultures of the bacteria E. coli, e.g. E. coli ATCC 11229, and S. aureus, e.g. S. aureus strains DSMZ 346, were prepared by inoculation of 3 ml liquid growth media (tryptic soy broth, e.g. Fluka Cat. No. 22092) from a stock culture and incubation for 16 to 20 h at 30° C. with agitation at 150 rotations per minutes (rpm) leading to a cell density of approximately 2×10^8 cells/ml. Fresh cultures of resistant bacteria, adapted to the conditions in biocide containing CaCO3 slurries, were prepared by inoculation of 50 g 75 wt.-% solid content CaCO3 slurry from a stock culture and incubated for 14 to 28 days at 30° C. without agitation.
(§4) Lithium ions were added to the aqueous preparation (e.g. CaCO3 slurry) by the addition of a water soluble lithium salt. For example to 50 g CaCO3 slurry with a solid content of 75% (w/w) 1.177 ml of a 74 g/Li2CO3 suspension was added and mixed well leading to a lithium ion concentration of 172 mM or 1205 ppm in the water phase. As another example to 50 g CaCO3 slurry with a solid content of 75 wt.-% (w/w) 0.04 ml of a 292 g/L Li3Citrate (2M) solution was added and mixed well leading to a lithium ion concentration of 19 mM or 135 ppm in the water phase.
(§5) The biocide to be tested was added to the aqueous preparation (e.g. CaCO3 slurry with or without lithium ions) in increasing concentrations starting from 0 ppm (without biocide). The concentrations ranged from concentrations higher than recommended by the supplier, to very low amounts (as low as 1 ppm or lower). Of each biocide concentration a 3 ml sample of aqueous preparation was combined with 20 μl fresh bacterial culture.
(§6) All samples were incubated at 30° C. for 24 h. After incubation colony forming units (cfu) per plate (cfu/plate) were determined as described above under bacterial count.
(§7) The MIC for bacteria is defined as the lowest concentration of biocide in the presence or absence of lithium ion amongst all samples tested, where the bacterial concentration dropped below 100 cfu/plate. The MIC for yeast and mould is defined as the lowest concentration of biocide in the presence or absence of lithium ion amongst all samples tested, where the microbial concentration dropped below 20 cfu/plate.

Assay [2] relates to S. aureus strain DSMZ 346. Description: MIC determination / bacterial count in CaCO3 slurry with or without lithium ions. Format: cell-based. Particulars: for MIC: Staphylococcus aureus, DSMZ346, S. aureus, read-out: MIC active/aequeous; for bacterial count: S. aureus DSMZ 346; for antimicrobial effect of lithium ions provided alone: S. aureus strain. On the procedure: as §1, §2, §3, §4, §5, §6, §7

Assay [3] relates to E. coli strain ATCC11229. Described as above. It is filed as cell-based. The note with it: for MIC ratio (MICwithout Li/MICLi): E. coli; for MIC: Escherichia coli; for bacterial count: E. coli ATCC11229. On the procedure: as §1, §2, §3, §4, §5, §6, §7
Where [4] appears, read: S. aureus, Li^+ 423 mM (2964 ppm), Li2CO3.
The mark [5] stands for this setting: ATCC11229, read-out: MIC active/aequeous, E. coli, Li^+ 329 mM (2305 ppm), Li2CO3.
Setting [6] is: ATCC11229, read-out: MIC active/aequeous, E. coli, no Li^+.
[7] abbreviates: ATCC11229, read-out: MIC active/aequeous, E. coli, Li^+ 197 mM (1380 ppm), Li2CO3.
Setting [8] is: S. aureus, Li^+ 197 mM (1380 ppm), Li2CO3.
The mark [9] stands for this setting: S. aureus, Li^+ 329 mM (2305 ppm), Li2CO3.

Values joined by “and” are separate entries in the source; they are usually repeats but may differ in a detail not shown here. Identical values can stand only once. Like-named read-outs stand apart in the source and are kept apart here.

For the compound `OC1OCCOC1O` (stereo not drawn) [1,6-Dihydroxy-2,5-dioxane], the MIC is 8700 µM and 1060 µg/mL in assay [1] (Li^+ 197 mM (1380 ppm), Li2CO3); 5800 µM and 708 µg/mL in assay [1] (Li^+ 423 mM (2964 ppm), Li2CO3); 3100 µM and > 1590 µg/mL in assay [1] (no Li^+). Besides, the “MIC ratio (MICwithout Li/MICLi)” value is greater than 1.5 in assay [1] (Li^+ 197 mM (1380 ppm), Li2CO3) and greater than 2.25 in assay [1] (Li^+ 423 mM (2964 ppm), Li2CO3).
Take `CN1CSC(=S)N(C)C1` [3.5-Dimethyltetrahydro-1,3,5-thiadiazine-2-]: the “MIC ratio (MICwithout Li/MICLi)” value in assay [2] (setting [4]) was greater than 2.5; in assay [3] (Li^+ 329 mM (2305 ppm), Li2CO3), 1.25. Also, the MIC in assay [2] (Li^+ 423 mM (2964 ppm), Li2CO3) is 440 µM and 70.8 µg/mL; in assay [2] (no Li^+), > 1090 µM and > 177 µg/mL; in assay [3] (setting [5]), 870 µM and 142 µg/mL; in assay [3] (setting [6]), 1090 µM and 177 µg/mL.
Consider `Cc1cc(O)ccc1Cl` [4-Chloro-3-methylphenol], for which the “MIC ratio (MICwithout Li/MICLi)” value in assay [2] (setting [4]) is on record as 1.5; in assay [3] (Li^+ 197 mM (1380 ppm), Li2CO3), 2; in assay [3] (Li^+ 329 mM (2305 ppm), Li2CO3), 4. The MIC in assay [2] (Li^+ 423 mM (2964 ppm), Li2CO3) was 2480 µM and 354 µg/mL; in assay [2] (no Li^+) it was 3720 µM and 531 µg/mL; in assay [3] (setting [7]), 177 µg/mL and 1240 µM; in assay [3] (setting [5]), 620 µM and 88.5 µg/mL; in assay [3] (setting [6]), 354 µg/mL and 2480 µM. Also, the bacterial count is listed as no less than 100 cfu/plate in assay [3] (88.5 ppm 4-chloro-3-methylphenol, 197 mM Li^+) and no less than 1000 cfu/plate in assay [3] (88.5 ppm 4-chloro-3-methylphenol, no Li^+).
As to `O=[N+]([O-])C(Br)(CO)CO` [Bronopol], the “MIC ratio (MICwithout Li/MICLi)” value in assay [2] (S. aureus, Li^+ 172 mM (1205 ppm), Li2CO3) is 6; in assay [2] (setting [8]) it was 2; in assay [2] (setting [9]), 6; in assay [2] (setting [4]), 20; in assay [3] (Li^+ 172 mM (1205 ppm), Li2CO3), greater than 3.75; in assay [3] (Li^+ 197 mM (1380 ppm), Li2CO3) it was 3. Moreover, the MIC in assay [2] (Li^+ 172 mM (1205 ppm), Li2CO3) was 150 µM and 30 µg/mL; in assay [2] (Li^+ 197 mM (1380 ppm), Li2CO3), 450 µM and 90 µg/mL; in assay [2] (Li^+ 329 mM (2305 ppm), Li2CO3) it was 150 µM and 30 µg/mL; in assay [2] (Li^+ 423 mM (2964 ppm), Li2CO3), 50 µM and 9 µg/mL; in assay [2] (no Li^+) it was 900 µM and 180 µg/mL; in assay [3] (ATCC11229, E. coli, Li^+ 172 mM (1205 ppm), Li2CO3, read-out: MIC active/aequeous), 120 µM and 24 µg/mL. In addition, the MIC in assay [3] (ATCC11229, E. coli, Li^+ 197 mM (1380 ppm), Li2CO3, read-out: MIC active/aequeous) is 180 µM and 35.4 µg/mL; in assay [3] (ATCC11229, E. coli, no Li^+, read-out: MIC active/aequeous), 530 µM and 106 µg/mL.
For the compound `C=O` [Formaldehyde], the MIC in assay [1] (Li^+ 197 mM (1380 ppm), Li2CO3) was 11800 µM and 354 µg/mL; in assay [1] (no Li^+), > 35400 µM and > 1060 µg/mL; in assay [3] (setting [7]), 590 µM and 17.7 µg/mL; in assay [3] (setting [6]), > 1180 µM and > 35.4 µg/mL. Also, the “MIC ratio (MICwithout Li/MICLi)” value in assay [1] (Li^+ 197 mM (1380 ppm), Li2CO3) is greater than 3; in assay [2], greater than 10; in assay [3] (Li^+ 197 mM (1380 ppm), Li2CO3), greater than 2.
Take `O=CCCCC=O` [Glutaraldehyde]: the “MIC ratio (MICwithout Li/MICLi)” value in assay [2] (setting [8]) is given as greater than 10. For the same compound, the MIC in assay [2] (Li^+ 197 mM (1380 ppm), Li2CO3) was 40 µM and 3.54 µg/mL; in assay [2] (no Li^+), > 350 µM and > 35.4 µg/mL.
Turning to `CCCCCCCCCCCCN=C(N)N.Cl` [Guanidinedodecyl monochloride], the “MIC ratio (MICwithout Li/MICLi)” value in assay [3] (Li^+ 197 mM (1380 ppm), Li2CO3) is greater than 2.4.
As for `O=S(=O)(C(Cl)(Cl)Cl)C(Cl)(Cl)Cl` [Hexachlorodimethyl sulfone], the “MIC ratio (MICwithout Li/MICLi)” value in assay [2] (setting [9]) was found to be 1.33; in assay [3] (Li^+ 197 mM (1380 ppm), Li2CO3), 1.67.
`[Li+]` [Li^+]: the “antimicrobial effect of lithium ions provided alone” value in assay [1] (rOmy AK strain, lithium ions via Li2CO3, no biocide) is “no antimicrobial effect”; in assay [2] (lithium ions via Li2CO3, no biocide) it was “no antimicrobial effect”; in assay [2] (lithium ions via lithium citrate, no biocide), “no antimicrobial effect”; in assay [3] (E. coli strain, lithium ions via Li2CO3, no biocide) it was “no antimicrobial effect”. In addition, the bacterial count in assay [1] (rOmy AK, no MIT, 329 mM Li^+ (Li2CO3) alone) is no less than 1000 cfu/plate; in assay [2] (no CMIT/MIT, 197 mM Li^+ (Li2CO3) alone), no less than 1000 cfu/plate; in assay [2] (no Sodium pyrithione, 96 mM Li^+ (lithium citrate) alone), no less than 1000 cfu/plate; in assay [3] (no 4-chloro-3-methylphenol, 197 mM Li^+ (Li2CO3) alone) it was no less than 100 cfu/plate.
Consider `N#CSCSC#N` [Methylene bis(thiocyanate)], for which the “MIC ratio (MICwithout Li/MICLi)” value in assay [2] (setting [9]) worked out at 4.04.
With `[Na+].[O-][n+]1ccccc1[S-]` [Sodium pyrithione], in assay [3] (Li^+ 197 mM (1380 ppm), Li2CO3), the “MIC ratio (MICwithout Li/MICLi)” value worked out at 3.
As to “Polyethoxyethoxyethylguanidinium hexachloride”, the “MIC ratio (MICwithout Li/MICLi)” value in assay [3] (Li^+ 197 mM (1380 ppm), Li2CO3) was greater than 1.33; in assay [3] (Li^+ 423 mM (2964 ppm), Li2CO3), greater than 8.
